Measurements published in patent US20240025919A1, “AZA-TETRACYCLIC OXAZEPINE COMPOUNDS AND USES THEREOF” (Genentech, Inc., priority 2022, published 2024).

Assays:
[1] = molecular target: KRAS G12D (Homo sapiens (Human), UniProt P01116, G12D); assay: KRAS G12D LoEnz Biochemical Assay, BODIPY-GDP Exchange TR-FRET (SOS1-mediated nucleotide exchange); details: read-out: KRas (G12D) GDP HTRF IC50
[2] = molecular target: KRAS WT (Homo sapiens (Human), UniProt P01116); assay: KRAS WT Biochemical Assay, BODIPY-GDP Exchange TR-FRET (Example 501; 3 nM KRAS WT, 3 nM SOS1, 60-minute incubation); details: read-out: KRas HTRF IC50
In short: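 SOS1-mediated exchange assay: 3 nM biotin-KRAS WT with terbium-streptavidin, started with 3 nM SOS1 and 300 nM BODIPY-GDP, HEPES pH 7.5 with MgCl2. TR-FRET (520/490 nm) read after 60 min; normalized to DMSO and full-inhibition control, IC50 from 4-parameter Hill fit.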

KRAS WT, sequence (P01116-2 other isoform, or with tags, fused parts or gaps): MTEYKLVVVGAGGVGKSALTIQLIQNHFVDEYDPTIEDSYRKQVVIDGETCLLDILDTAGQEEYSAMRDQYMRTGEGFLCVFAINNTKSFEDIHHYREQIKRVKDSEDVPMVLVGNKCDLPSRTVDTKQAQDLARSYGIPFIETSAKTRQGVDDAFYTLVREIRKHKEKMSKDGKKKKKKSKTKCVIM
KRAS G12D, sequence (P01116-2 other isoform, or with tags, fused parts or gaps G12D): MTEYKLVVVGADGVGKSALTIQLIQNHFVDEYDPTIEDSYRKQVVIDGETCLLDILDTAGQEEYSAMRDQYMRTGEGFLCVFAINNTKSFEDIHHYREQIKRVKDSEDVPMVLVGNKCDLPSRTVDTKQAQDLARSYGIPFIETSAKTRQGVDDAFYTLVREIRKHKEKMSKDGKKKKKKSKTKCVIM

Compound	IC50 [1]	IC50 [2]
Cc1nc(N)c(F)c(-c2nc3c4c(nc(OCC5(CN6CCOCC6)CC5)nc4c2F)N2C[C@H]4CC[C@H](N4)[C@H]2[C@H](C)O3)c1C(F)(F)F [Compound 219, 3-Fluoro-4-((5S,5aS,6S,9R)-1-fluoro-5-methyl-12-((1-(morpholinomethyl)cyclopropyl)methoxy)-5a,6,7,8,9,10-hexahydro-5H-4-oxa-3,10a,11,13,14-pentaaza-6,9-methanonaphtho[1,8-ab]heptalen-2-yl)-6-methyl-5-(trifluoromethyl)pyridin-2-amine]	0.46 nM	47.3 nM
Cc1nc(N)c(F)c(-c2nc3c4c(nc(OCC56CCN5CC(F)(F)C6)nc4c2F)N2C[C@H]4CC[C@H](N4)[C@H]2[C@H](C)O3)c1C(F)(F)F (stereo partly drawn) [Compound 220, 4-((5S,5aS,6S,9R)-12-((3,3-Difluoro-1-azabicyclo[3.2.0]heptan-5-yl)methoxy)-1-fluoro-5-methyl-5a,6,7,8,9,10-hexahydro-5H-4-oxa-3,10a,11,13,14-pentaaza-6,9-methanonaphtho[1,8-ab]heptalene-2-yl)-3-fluoro-6-methyl-5-(trifluoromethyl)pyridin-2-amine]	0.92 nM	149 nM
Cc1nc(N)c(F)c(-c2nc3c4c(nc(OCC5(CN6C[C@@H]7C[C@H]6CO7)CC5)nc4c2F)N2C[C@H]4CC[C@H](N4)[C@H]2[C@H](C)O3)c1C(F)(F)F [Compound 222, 4-((5S,5aS,6S,9R)-12-((1-(((1S,4S)-2-Oxa-5-azabicyclo[2.2.1]heptan-5-yl)methyl)cyclopropyl)methoxy)-1-fluoro-5-methyl-5a,6,7,8,9,10-hexahydro-5H-4-oxa-3,10a,11,13,14-pentaaza-6,9-methanonaphtho[1,8-ab]heptalene-2-yl)-3-fluoro-6-methyl-5-(trifluoromethyl)pyridin-2-amine]	3.39 nM	45.7 nM
Cc1nc(N)c(F)c(-c2nc3c4c(nc(OCC5(CN6C[C@H]7C[C@@H]6CO7)CC5)nc4c2F)N2C[C@H]4CC[C@H](N4)[C@H]2[C@H](C)O3)c1C(F)(F)F [Compound 223, 4-((5S,5aS,6S,9R)-12-((1-(((1R,4R)-2-Oxa-5-azabicyclo[2.2.1]heptan-5-yl)methyl)cyclopropyl)methoxy)-1-fluoro-5-methyl-5a,6,7,8,9,10-hexahydro-5H-4-oxa-3,10a,11,13,14-pentaaza-6,9-methanonaphtho[1,8-ab]heptalene-2-yl)-3-fluoro-6-methyl-5-(trifluoromethyl)pyridin-2-amine]	3.39 nM	51.3 nM
Cc1c(F)c(N)c(F)c(-c2nc3c4c(nc(OCC5(CN6CCOCC6)CC5)nc4c2F)N2C[C@H]4CC[C@H](N4)[C@H]2[C@H](C)O3)c1C(F)(F)F [Compound 224, 2,6-Difluoro-3-((5S,5aS,6S,9R)-1-fluoro-5-methyl-12-((1-(morpholinomethyl)cyclopropyl)methoxy)-5a,6,7,8,9,10-hexahydro-5H-4-oxa-3,10a,11,13,14-pentaaza-6,9-methanonaphtho[1,8-ab]heptalen-2-yl)-5-methyl-4-(trifluoromethyl)aniline]	0.18 nM	12 nM
Cc1c(F)c(N)c(F)c(-c2nc3c4c(nc(OC[C@@]56CCCN5CC5(CC5(F)F)C6)nc4c2F)N2C[C@H]4CC[C@H](N4)[C@H]2[C@H](C)O3)c1C(F)(F)F (stereo partly drawn) [Compound 225, 3-((5S,5aS,6S,9R)-12-(((7a′S)-2,2-Difluorodihydro-1′H,3′H-spiro[cyclopropane-1,2′-pyrrolizin]-7a′(5′H)-yl)methoxy)-1-fluoro-5-methyl-5a,6,7,8,9,10-hexahydro-5H-4-oxa-3,10a,11,13,14-pentaaza[6,9]methanonaphtho[1,8-ab]heptalene-2-yl)-2,6-difluoro-5-methyl-4-(trifluoromethyl)aniline]	0.25 nM	4.2 nM
Cc1cc(N)c(F)c(-c2nc3c4c(nc(OCC5(CN6CCOCC6)CC5)nc4c2F)N2C[C@H]4CC[C@H](N4)[C@H]2[C@H](C)O3)c1C(F)(F)F [Compound 226, 2-Fluoro-3-((5S,5aS,6S,9R)-1-fluoro-5-methyl-12-((1-(morpholinomethyl)cyclopropyl)methoxy)-5a,6,7,8,9,10-hexahydro-5H-4-oxa-3,10a,11,13,14-pentaaza-6,9-methanonaphtho[1,8-ab]heptalene-2-yl)-5-methyl-4-(trifluoromethyl)aniline]	0.4 nM	8.11 nM
Cc1cc(N)c(F)c(-c2nc3c4c(nc(OC[C@@]56CCCN5CC5(CC5(F)F)C6)nc4c2F)N2C[C@H]4CC[C@H](N4)[C@H]2[C@H](C)O3)c1C(F)(F)F (stereo partly drawn) [Compound 227, 3-((5S,5aS,6S,9R)-12-(((7a′S)-2,2-Difluorodihydro-1′H,3′H-spiro[cyclopropane-1,2′-pyrrolizin]-7a′(5′H)-yl)methoxy)-1-fluoro-5-methyl-5a,6,7,8,9,10-hexahydro-5H-4-oxa-3,10a,11,13,14-pentaaza[6,9]methanonaphtho[1,8-ab]heptalene-2-yl)-2-fluoro-5-methyl-4-(trifluoromethyl)aniline]	0.21 nM	0.938 nM
Cc1c(F)c(N)c(F)c(-c2nc3c4c(nc(OC[C@@H]5C[C@@H](F)CN5C)nc4c2F)N2C[C@H]4CC[C@H](N4)[C@H]2[C@H](C)O3)c1C(F)(F)F [Compound 228, 2,6-Difluoro-3-((5S,5aS,6S,9R)-1-fluoro-12-(((2S,4R)-4-fluoro-1-methylpyrrolidin-2-yl)methoxy)-5-methyl-5a,6,7,8,9,10-hexahydro-5H-4-oxa-3,10a,11,13,14-pentaaza-6,9-methanonaphtho[1,8-ab]heptalen-2-yl)-5-methyl-4-(trifluoromethyl)aniline]	370 nM	4880 nM
Cc1c(F)c(N)c(F)c(-c2nc3c4c(nc(OC[C@@]56CCCN5C/C(=C\F)C6)nc4c2F)N2C[C@H]4CC[C@H](N4)[C@H]2[C@H](C)O3)c1C(F)(F)F [Compound 229, 2,6-Difluoro-3-((5S,5aS,6S,9R)-1-fluoro-12-(((S,Z)-2-(fluoromethylene)tetrahydro-1H-pyrrolizin-7a(5H)-yl)methoxy)-5-methyl-5a,6,7,8,9,10-hexahydro-5H-4-oxa-3,10a,11,13,14-pentaaza-6,9-methanonaphtho[1,8-ab]heptalene-2-yl)-5-methyl-4-(trifluoromethyl)aniline]	0.36 nM	12 nM
Cc1cc(N)cc(-c2nc3c4c(nc(OC[C@@H]5CC[C@H]6COCCN65)nc4c2F)N2C[C@H]4CC[C@H](N4)[C@H]2[C@H](C)O3)c1CC(F)F [Compound 230, 4-(2,2-Difluoroethyl)-3-((5S,5aS,6S,9R)-1-fluoro-12-(((6S,8aS)-hexahydro-1H-pyrrolo[2,1-c][1,4]oxazin-6-yl)methoxy)-5-methyl-5a,6,7,8,9,10-hexahydro-5H-4-oxa-3,10a,11,13,14-pentaaza-6,9-methanonaphtho[1,8-ab]heptalen-2-yl)-5-methylaniline]	1.13 nM	213 nM
Cc1cc(N)c(F)c(-c2nc3c4c(nc(OC[C@@H]5CC[C@H]6COCCN65)nc4c2F)N2C[C@H]4CC[C@H](N4)[C@H]2[C@H](C)O3)c1CC(F)F [Compound 231, 4-(2,2-Difluoroethyl)-2-fluoro-3-((5S,5aS,6S,9R)-1-fluoro-12-(((6S,8aS)-hexahydro-1H-pyrrolo[2,1-c][1,4]oxazin-6-yl)methoxy)-5-methyl-5a,6,7,8,9,10-hexahydro-5H-4-oxa-3,10a,11,13,14-pentaaza-6,9-methanonaphtho[1,8-ab]heptalen-2-yl)-5-methylaniline]	4.6 nM	1240 nM
CCc1c(F)c(N)cc(-c2nc3c4c(nc(OC[C@@H]5CC[C@H]6COCCN65)nc4c2F)N2C[C@H]4CC[C@H](N4)[C@H]2[C@H](C)O3)c1C(F)(F)F [Compound 232, 3-Ethyl-2-fluoro-5-((5S,5aS,6S,9R)-1-fluoro-12-(((6S,8aS)-hexahydro-1H-pyrrolo[2,1-c][1,4]oxazin-6-yl)methoxy)-5-methyl-5a,6,7,8,9,10-hexahydro-5H-4-oxa-3,10a,11,13,14-pentaaza-6,9-methanonaphtho[1,8-ab]heptalen-2-yl)-4-(trifluoromethyl)aniline]	2.86 nM	277 nM
Cc1c(F)c(N)cc(-c2nc3c4c(nc(OC[C@@]56CCCN5C[C@H](F)C6)nc4c2F)N2C[C@H]4CC[C@H](NC4)[C@H]2CO3)c1C(F)(F)F [Compound 236, 2-Fluoro-5-((5aS,6S,9S)-1-fluoro-12-(((2R,7aS)-2-fluorotetrahydro-1H-pyrrolizin-7a(5H)-yl)methoxy)-5a,6,7,8,9,10-hexahydro-5H-4-oxa-3,10a,11,13,15-pentaaza-6,9-ethanonaphtho[1,8-ab]heptalene-2-yl)-3-methyl-4-(trifluoromethyl)aniline]	68 nM	830 nM
Cc1c(F)c(N)cc(-c2nc3c4c(nc(OC[C@@]56CCCN5C[C@H](F)C6)nc4c2F)N2C[C@H]4CC[C@H](N4)[C@H]2C(CF)O3)c1C(F)(F)F (stereo partly drawn) [Compound 239, 2-Fluoro-5-((5aS,6S,9R)-1-fluoro-5-(fluoromethyl)-12-(((2R,7aS)-2-fluorotetrahydro-1H-pyrrolizin-7a(5H)-yl)methoxy)-5a,6,7,8,9,10-hexahydro-5H-4-oxa-3,10a,11,13,14-pentaaza-6,9-methanonaphtho[1,8-ab]heptalen-2-yl)-3-methyl-4-(trifluoromethyl)aniline]	0.58 nM	0.94 nM
Cc1c(Cl)c(N)cc(-c2nc3c4c(nc(OC[C@@]56CCCN5C[C@H](F)C6)nc4c2Cl)N2C[C@H]4CC[C@H](N4)[C@H]2[C@H](C)O3)c1C(F)(F)F [Compound 241, 2-Chloro-5-((5S,5aS,6S,9R)-1-chloro-12-(((2R,7aS)-2-fluorotetrahydro-1H-pyrrolizin-7a(5H)-yl)methoxy)-5-methyl-5a,6,7,8,9,10-hexahydro-5H-4-oxa-3,10a,11,13,14-pentaaza-6,9-methanonaphtho[1,8-ab]heptalen-2-yl)-3-methyl-4-(trifluoromethyl)aniline]	0.13 nM	15.4 nM
